# Laboratory results reported in paper PMC12247024, “PCFT‐Independent Cellular Uptake of Cyclic Cell‐Penetrating Peptide‐Conjugated Folic Acid” (Chembiochem, 2025).
# Positions of bridges follow the written chain, without caps; N, C: chain ends. Residues, ends and D or L forms follow the SMILES beside them.
# Assays:
# [1] = Trypsin treatment, intact peptide by HPLC; format: in vitro ADME; details: isolated enzyme trypsin, trypsin, HPLC chromatogram analysis, read-out: intact peptide after trypsin treatment
# Source text: (§1) Compared with the linear peptides, cyclic analogs are well documented for enhanced physiological stability and resistance to enzymatic degradation.^[ [20], [21], [22] ^]
# Caco‐2 cells [2] = assay: Cellular uptake of fluorophore‐labeled linear and cyclic peptides; format: cell-based; details: Caco‐2, fluorophore‐labeled peptides, fluorescence microscopy and cell lysates by microplate reader
# Method: (§2) Caco‐2 and HD‐11 cells were then seeded in six‐well plates at a density of 2.0 × 10^5 cells per well, in 2 mL of RPMI no folic acid medium. After overnight incubation, the cells were further incubated for 4 h with fluorescent folic acid and with cTAT‐folic acid‐FL conjugates (4.5 μM) at 37 °C in a humidified atmosphere containing 5% CO2. The cells were washed with PBS, and relative fluorescence of the samples was analyzed with the microplate reader using excitation wavelength of 490 nm and emission wavelength of 520 nm.
# as §1
# HD‐11 cells = assay: as above; format: cell-based, chicken; details: HD‐11, fluorophore‐labeled peptides, fluorescence microscopy and cell lysates by microplate reader
# Method: as §2, §1
# [3] = RP‐HPLC ACN elution (relative hydrophobicity); format: physicochemical; details: PFP column, water/acetonitrile gradient 5%–95% with 0.1% TFA, detection 220 nm, used by the paper as measure of overall hydrophobicity
# Source text: Peptides were purified using a reverse‐phase high‐performance liquid chromatography (RP‐HPLC) system, Agilent Technologies (Santa Clara, CA, USA), with water and acetonitrile gradient (5%–95%), containing 0.1% TFA as the mobile phase. Pentafluorophenyl (PFP) column was used as the stationary phase, and samples were detected at the absorbance of 220 nm. Electronic spray ionization‐mass spectrometry (ESI‐MS) was used to determine the molecular weights of the synthesized peptides. Mass spectrometry data were provided by the AIMS Mass Spectrometry Laboratory at the University of Toronto. The peptide conjugates were characterized by electrospray ionization mass spectrometry (ESI‐MS) with agreement between the predicted and experimental molecular weights (Table 1). The peptides, cTAT‐folic acid conjugates, and fluorescein‐labeled conjugates were assessed for the peptide purity by analytical RP‐HPLC system (Figure S6–S11, Supporting Information). The broader peaks, peak splitting, and lower signaling intensity of cyclic peptide and their conjugates in the chromatograms are due to the limited interactions of the peptides with the HPLC columns. The appearance of double peaks for TAMRA conjugated linear and cyclic peptides and of folic acid is likely due to the use of 5‐ and 6‐TAMRA isomer, since isomeric dye conjugated molecules tend to show multiple peaks in RP‐HPLC.^[ [23] ^] […] The bioconjugation of folic acid with cTAT increased the overall hydrophobicity of the cyclic peptide (%ACN elution change from 24% to 34% for cTAT and cTAT‐folic acid respectively), and the ACN elution profile of the conjugates was similar to that of folic acid (Table 1).
# Caco‐2 cells [4] = assay: Cellular uptake of fluorescein‐labeled folic acid and conjugates; format: cell-based; details: Caco‐2, 4.5 μM
# Method: as §2
# The cellular uptake of fluorophore‐labeled folic acid (folic acid‐FL) and cTAT‐folic acid conjugates (cTAT‐folic acid‐FL) was studied at 4.5 μM concentration in Caco‐2 cells, at the physiological and acidic pH.
# Figure 1 Cellular uptake of fluorescein‐labeled folic acid and cTAT‐folic acid conjugates (4.5 μM) in Caco‐2 cells in the presence and absence of inhibitors at A) acidic and B) physiological pH. C) WB analysis of PCFT/GAPDH expression in Caco‐2 cells in the presence of 50 μM myricetin. The experiments were replicated in triplicates (n = 3). The values are mean ± standard error for n = 3, *p < 0.01.
# trypsin = tested on: T1, trypsin; assay: Trypsin treatment, intact peptide by HPLC; format: in vitro ADME; details: isolated enzyme trypsin
# T1 construct: purchased Sigma Aldrich / VWR Life Sciences
# Source text: as §1
# [5] = tested on: DHFR activity in Caco‐2 cell lysates; assay: DHFR assay in lysates of treated cells; format: cell-based; details: for DHFR activity in cell lysates: Caco‐2 treated at acidic pH for 4 h, NADPH absorbance 340 nm, mean, n = 3
# Method: DHFR kit was purchased from Millipore Sigma and was used to analyze DHFR activity, according to manufacturer's protocol. DHFR enzyme catalyzes the reduction of dihydrofolic acid to tetrahydrofolic acid, which is reversible and NADPH‐dependent reaction.
# Dihydrofolic acid + NADPH + H^+ ↔ Tetrahydrofolic acid + NADP^+
# Briefly, 20 μM NADPH, 15 μM DHF, 5 μM DHFR, 50 mM Tris (pH 7.5), and 2 mg mL^−1 of cell lysates from Caco‐2 samples treated with 4.5 μM of cTAT‐folic acid conjugates and 20 μM folic acid were added to obtain final volume of 100 μL. DHFR activity at room temperature was monitored by continuously measuring the drop in NADPH concentration, by taking the absorbance at 340 nm for up to 2.5 min.
# Figure 3 DHFR activity in units/mg of protein in Caco‐2 cells lysates, performed 4‐h post‐treatment. A) Cotreatment of cells with folic acid, cTAT‐folic acid conjugates, and myricetin and B) treatment of cell lysates with methotrexate (MTX). The values are mean ± standard error for n = 3, *p < 0.01. Units per mg indicate DHFR activity per mg of protein in the sample, where total protein content (mg) in each sample was measured by BCA assay.
# [6] = tested on: IL‐1β and IFN‐β production in HD‐11 cells; assay: Cytokine release (ELISA) upon IBDV infection; format: cell-based, chicken; details: HD‐11, IBDV at TCID50 for 1 h, then folic acid 20 μM or cTAT‐folic acid 4.5 μM, n = 3, p < 0.01
# Method: A modified live IBDV vaccine, UNIVAX‐BDmild strain (ST12) from MSD Animal Health, was reconstituted with10 mL of PBS, and 500 μL aliquots were stored at −80 °C, according to previously reported procedures.^[ [25] ^] An aliquot of the vaccine was added to a tissue culture‐treated T‐25 flask containing confluent HD‐11 cells, and the flask was incubated at 37 °C with 5% CO2 for 1 h to reproduce the virus and to obtain multiplicity of infection (MOI = 1). Following this, 5 mL of media was added, and the cells were incubated for 72 h under the same conditions. After that, the supernatant was extracted, centrifuged for 10 min at 1000 × g, and 500 μL aliquots were taken out and kept at −80 °C to evaluate 50% tissue culture infective‐dose assay (TCID50) in HD‐11. […] The plate was incubated at 37 °C with 5% CO2 for 4 h, and TCID50 was evaluated by MTS assay, as described above.
# HD‐11 and RAW 264.7 cells were cultured in folic acid free RPMI containing 10% FBS and 1% penicillin–[…] solution. […] After 24 h of incubation, cell culture supernatant were collected, and production of chicken IL‐1β and IFN‐β cytokines in HD‐11 was evaluated in triplicate by ELISA kits purchased from Genorise Scientific Inc. (Berwyn, PA 19 312, United States). The production of mouse IL‐1β, TNF‐α and IL‐10 was quantified in RAW 264.7 cells in triplicates by ELISA assay. […]
# [7] = tested on: IL‐1β, TNF‐α and IL‐10 production in RAW 264.7 cells; assay: Cytokine release (ELISA) upon LPS challenge; format: cell-based, mouse; details: RAW264.7, LPS for 1 h, then folic acid 20 μM or cTAT‐folic acid 4.5 μM, n = 3, p < 0.01
# Method: HD‐11 and RAW 264.7 cells were cultured in folic acid free RPMI containing 10% FBS and 1% penicillin–[…] solution. Cytokine release profile from HD‐11 chicken macrophage cells and RAW 264.7 […] macrophage cells was studied by treating cells in growth phase (≈70% confluency) with 1 μg mL^−1 LPS or with IBDV at TCID50 for 1 h, followed by the addition of folic acid (20 μM) and cTAT‐folic acid conjugates (4.5 μM) in serum‐free, folic acid‐negative RPMI‐1640 medium. After 24 h of incubation, cell culture supernatant were collected, and production of chicken IL‐1β and IFN‐β cytokines in HD‐11 was evaluated in triplicate by ELISA kits purchased from Genorise Scientific Inc. (Berwyn, PA 19 312, United States). The production of mouse IL‐1β, TNF‐α and IL‐10 was quantified in RAW 264.7 cells in triplicates by ELISA assay.
# Figure 4 ELISA assay showing A) cytokine expression in HD‐11 cells upon IBDV infection for 1 h, followed by the treatment with folic acid (20 μM) and cTAT‐folic acid conjugates (4.5 μM), and B) cytokine expression (IL‐1β, IL‐10, and TNF‐α) upon LPS (0.5 μg mL^−1) challenge of RAW 264.7 for 1 h, followed by the treatment with folic acid (20 μM) and cTAT‐folic acid conjugates (4.5 μM) for 4 h. The values are mean ± standard error for n = 3, *p < 0.01 and **p < 0.05.
# [8] = tested on: PCFT expression in Caco‐2 cells; assay: WB analysis of PCFT/GAPDH expression; format: cell-based; details: Caco‐2, 50 μM, p < 0.01
# Method: Caco‐2 cells were seeded in six well culture plate at 1 × 10^6 cells per well in RPMI 1640 folic acid negative medium for 24 h followed by the addition of folic acid, cTAT, and cTAT‐folic acid conjugates (0.1–200 μM) for 4 h. 0.5 mL of pre‐chilled RIPA lysis buffer at 4 °C was added to Caco‐2 cells in six‐well plate. The cell samples were scraped and centrifuged at 14 000 × g to remove cellular debris. The amount of protein in cell lysate was measured by using BCA assay. The protein samples (25 μg) were loaded directly onto 12% Tris·HCl polyacrylamide gels using 6X SDS loading buffer (1:1) containing DTT, and gel was run for 1 h at 110 V. After SDS‐PAGE, proteins were transferred to nitrocellulose membrane for 80 min at 110 V (Bio‐rad, Hercules, California, USA). […] Figure 2 PCFT/GAPDH expression in Caco‐2 cells was measured by the WBs as a function of concentration of, A) folic acid, B) cTAT‐folic acid conjugates, and C) comparison of cTAT‐folic acid conjugates (4.5 μM) with unconjugated cTAT + folic acid (4.5 μM).The experiments were replicated twice in triplicates (n = 3) and upon 4 h post‐treatment. […]
# [9] = folic acid 20 μM, cTAT‐folic acid 4.5 μM
molecule,measurement,setting,value
N=C(N)NCCC[C@H](NC(=O)[C@H](CCCCN)NC(=O)[C@H](CCCCN)NC(=O)[C@H](CCCNC(=N)N)NC(=O)[C@H](CCCNC(=N)N)NC(=O)[C@H](CCC(N)=O)NC(=O)[C@H](CCCNC(=N)N)NC(=O)[C@H](CCCNC(=N)N)NC(=O)[C@H](CCCNC(=N)N)NC(=O)[C@@H](N)CCCCN)C(=O)NCC(=O)N[C@@H](Cc1ccc(O)cc1)C(=O)N[C@@H](CCC(=O)O)C(N)=O [linear peptide] (H-KRRRQRRKKRGYE-NH2; N-terminus assumed),remaining at 1 h,[1]; 1 h incubation,36%
same,remaining at 20 h,[1]; 20 h post‐treatment,15%
same,"cellular uptake, cyclic versus linear peptide",Caco‐2 cells [2],lower uptake at all studied time points
same,"cellular uptake, cyclic versus linear peptide",HD‐11 cells,lower uptake at all studied time points
"CONH2‐c[EYGRKKRRQRRRK]C(FL)‐NH‐folic acid (sidechain bridge or staple) [cTAT‐folic acid‐FL, fluorescein‐labeled cTAT‐folic acid conjugate, fluorescein on an inserted Cys]",ACN elution [%],[3],29.86%
same,difference in cellular uptake between acidic and physiological pH,Caco‐2 cells [4],no significant difference
same,cellular uptake upon ethanol treatment of the cells,Caco‐2 cells [4]; physiological and acidic pH,only partially inhibited
N=C(N)NCCC[C@@H]1NC(=O)[C@H](CCCCN)NC(=O)[C@H](CCCCN)NC(=O)[C@H](CCCNC(=N)N)NC(=O)[C@H](CCCNC(=N)N)NC(=O)[C@H](CCC(N)=O)NC(=O)[C@H](CCCNC(=N)N)NC(=O)[C@H](CCCNC(=N)N)NC(=O)[C@H](CCCNC(=N)N)NC(=O)[C@@H](N)CCCCNC(=O)CC[C@@H](C(N)=O)NC(=O)[C@H](Cc2ccc(O)cc2)NC(=O)CNC1=O [cTAT] (H-KRRRQRRKKRGYE-NH2; lactam 1-13),ACN elution [%],[3],24%
same,remaining at 1 h,trypsin,49%
same,remaining at 20 h,trypsin,27%
same,"cellular uptake, cyclic versus linear peptide",Caco‐2 cells [2],significantly higher cellular uptake
same,"cellular uptake, cyclic versus linear peptide",HD‐11 cells,significantly higher cellular uptake
same,DHFR activity in cell lysates,[5]; [9],no significant DHFR activity
Nc1nc(=O)c2nc(CNc3ccc(C(=O)N[C@@H](CCC(=O)O)C(=O)O)cc3)cnc2[nH]1 [Folic acid],ACN elution [%],[3],34.06%
same,"DHFR activity in cell lysates, cotreatment with myricetin","[5]; Caco‐2, acidic pH, 4 h, folic acid 20 μM, cTAT‐folic acid 4.5 μM, plus myricetin",10 units mg^−1 of protein
same,DHFR activity in MTX‐treated cell lysates,[5]; Caco‐2 lysates plus methotrexate 100 μM,negligible DHFR activity
same,DHFR activity in cell lysates,[5]; [9],59 units mg^−1 of protein
same,production of proinflammatory cytokines in challenged macrophages,[6],reduced the production of proinflammatory cytokines
same,production of proinflammatory cytokines in challenged macrophages,[7],reduced the production of proinflammatory cytokines
O=c1c(O)c(-c2cc(O)c(O)c(O)c2)oc2cc(O)cc(O)c12 [myricetin],PCFT expression compared with the untreated cells,[8],significantly downregulated
